# Test results from patent US20230287051A1, “INHIBITORS OF COMPLEMENT FACTOR C3 AND THEIR MEDICAL USES” (ZP SPV 3 K/S, priority 2020, published 2023).
# Numbered stars: 1 amine (or outer) side, 2 acyl side, 3 side chain; on linkers, the order of the positions; unused ones are H or OH. Bridge positions count the residues as written; N and C are the ends. Square brackets hold non-standard residues; d marks the D form. Side chains are listed from the residue outwards. Peptide text beside a SMILES is read from it. * marks the point of attachment. Trp(1-Me) = Cn1cc(C[C@H](N)C(=O)O)c2ccccc21; C18 diacid = O=C(O)CCCCCCCCCCCCCCCCC(=O)*; γGlu = O=C(O)[C@H](CCC(=O)[*:2])N[*:1]; AEEA = NCCOCCOCC(=O)O; CH2 = C([*:1])[*:2]; Sar = CNCC(=O)O
# Test system: classical complement pathway
# Assay: In vitro haemolysis assay (inhibition of classical complement pathway)
# Assay type: cell-based
# Conditions: human serum, sensitized sheep RBC, 30 minutes at 37° C., absorbance at 405 nm, n=>2; read-out: IC50, inhibition of hemolysis
# Experimental: The in vitro effect of some of the compounds described herein was assessed by measuring their inhibitory effect of the classical complement pathway in a haemolysis assay.
# Briefly, compounds described herein and reference compounds were dissolved in DMSO and diluted in Tris/Casein Assay Buffer (10 mM Tris, 145 mM NaCl, 0.5 mM MgCl2, 0.15 mM CaCl2, and 0.1% W/V casein, adjusted to pH 7.4) as 9-point serial dilutions in a 96-well plate. Sensitized sheep red blood cells (RBC) coated with rabbit anti-sheep erythrocyte antiserum (Complement Technology, Inc., TX, USA) were washed in Tris/asein Assay Buffer. 50 μL from each well of diluted compound was added to a 96-well plate containing 50 μL diluted human serum (Complement Technology, Inc., TX, USA) and incubated for 15 minutes at room temperature. The serum dilution factor was optimized for every serum batch to obtain 70-90% of maximal haemolysis using the protocol. Then 50 μL sensitized sheep RBCs were added to all wells ([…]).
# After 30 minutes of incubation at 37° C. with gentle agitation, the reaction was stopped by addition of 50 μL Tris STOP Buffer per well (10 mM EDTA, 10 mM Tris, 145 mM NaCl adjusted to pH 7.4). The RBCs were then removed by centrifugation and the resulting supernatant measured for hemolysis by absorbance at 405 nm.
# The response was normalized relative to a positive and negative control (vehicle) to calculate the IC50 (nM) from the concentration response curve using the 4-parameter logistic (4PL) nonlinear model for curve fitting (Table 2). All values are based on n=>2 independent determinations.
row,Compound,IC50 [nM]
1,"CC[C@H](C)[C@@H]1NC(=O)[C@@H](NC(=O)[C@H](Cc2ccccc2)NC(=O)[C@H](CCC(=O)O)NC(C)=O)CSCSC[C@@H](C(=O)N[C@H](C(=O)N[C@@H](CCC(=O)O)C(=O)N[C@@H](C)C(=O)NCCOCCOCC(=O)NCCOCCOCC(=O)N[C@@H](CCCCNC(=O)CC[C@H](NC(=O)CNC(=O)CC[C@H](NC(=O)CCCCCCCCCCCCCCCCC(=O)O)C(=O)O)C(=O)O)C(N)=O)[C@@H](C)O)NC(=O)[C@H](CCCNC(=N)N)NC(=O)[C@H](Cc2c[nH]cn2)NC(=O)[C@H](CCC(=O)O)NC(=O)CN(C)C(=O)[C@H](Cc2c[nH]c3ccccc23)NC(=O)[C@H](CC(=O)O)NC(=O)[C@H](CCC(N)=O)NC(=O)[C@H](Cc2cn(C)c3ccccc23)NC1=O [Compound 12, Ac-EF[C(1)]I[1-Me-Trp]QDW[Sar]EHR[C(1)]TEA[Peg3][Peg3]-K([17-Carboxy-heptadecanoyl][yGlu]G[yGlu])-NH2] (Ac-EFCI[Trp(1-Me)]QDW[Sar]EHRCTEA[AEEA][AEEA]K([γGlu-Gly-γGlu-C18 diacid])-NH2; linker 3-13 via CH2)",< 100
2,Ac-SEFC(2)I[1-Me-Trp]QDWGEHRC(2)TGAES-NH2 [Compound 31],< 250
3,Ac-SEY[C(1)]I[1-Me-Trp]QDW[Sar]EHR[C(1)]TEGE[Peg3]ES-K([17-Carboxy-heptadecanoyl][yGlu])-NH2 [Compound 18],< 250
4,Ac-KSGEF[C(1)]I[1-Me-Trp]QDW[Sar]EHR[C(1)]TEGE[Peg3][Peg3]-K([17-Carboxy-heptadecanoyl][yGlu]G[yGlu])-NH2 [Compound 21],< 100
5,Ac-SEF[C(1)]I[[1-Me-Trp]QDW[Sar]EHR[C(1)]TEGE[Peg3]ES-K([17-Carboxy-heptadecanoyl][yGlu])-NH2 [Compound 11],< 250
6,Ac-SEF[C(1)]I[1-Me-Trp]QDWGEHR[C(1)]TGAES[Peg3][Peg3]-K([17-Carboxy-heptadecanoyl][yGlu]G[yGlu])-NH2 [Compound 14],< 250
7,"CC[C@H](C)[C@@H]1NC(=O)[C@@H](NC(=O)[C@H](Cc2ccccc2)NC(=O)[C@H](CCC(=O)O)NC(=O)[C@H](CCC(N)=O)NC(=O)[C@H](CCCCN)NC(=O)[C@H](CO)NC(C)=O)CSCSC[C@@H](C(=O)N[C@H](C(=O)N[C@@H](CCC(=O)O)C(=O)NCC(=O)N[C@@H](CCC(=O)O)C(=O)NCCOCCOCC(=O)NCCOCCOCC(=O)N[C@@H](CCCCNC(=O)CC[C@H](NC(=O)CNC(=O)CC[C@H](NC(=O)CCCCCCCCCCCCCCCCC(=O)O)C(=O)O)C(=O)O)C(N)=O)[C@@H](C)O)NC(=O)[C@H](CCCNC(=N)N)NC(=O)[C@H](Cc2c[nH]cn2)NC(=O)[C@H](CCC(=O)O)NC(=O)CN(C)C(=O)[C@H](Cc2c[nH]c3ccccc23)NC(=O)[C@H](CC(=O)O)NC(=O)[C@H](CCC(N)=O)NC(=O)[C@H](Cc2cn(C)c3ccccc23)NC1=O [Compound 26, Ac-SKQEF[C(1)]I[1-Me-Trp]QDW[Sar]EHR[C(1)]TEGE[Peg3][Peg3]-K([17-Carboxy-heptadecanoyl][yGlu]G[yGlu])-NH2] (Ac-SKQEFCI[Trp(1-Me)]QDW[Sar]EHRCTEGE[AEEA][AEEA]K([γGlu-Gly-γGlu-C18 diacid])-NH2; linker 6-16 via CH2)",< 100
8,Ac-SEF[C(1)]IYQDW[Sar]EHR[C(1)]TEGE[Peg3]ES-K([17-Carboxy-heptadecanoy!][yGlu])-NH2 [Compound 17],< 500
9,"CC[C@H](C)[C@@H]1NC(=O)[C@@H](NC(=O)[C@@H](NC(=O)[C@@H](Cc2ccc(O)cc2)NC(C)=O)[C@@H](C)CC)CSCSC[C@@H](C(=O)N[C@H](C(=O)N[C@@H](CCC(=O)O)C(=O)NCC(=O)N[C@@H](CCC(=O)O)C(=O)NCCOCCOCC(=O)N[C@@H](CCC(=O)O)C(=O)N[C@@H](CO)C(=O)N[C@@H](CCCCNC(=O)CC[C@H](NC(=O)CCCCCCCCCCCCCCCCC(=O)O)C(=O)O)C(N)=O)[C@@H](C)O)NC(=O)[C@H](CCCNC(=N)N)NC(=O)[C@H](Cc2c[nH]cn2)NC(=O)[C@H](CCC(=O)O)NC(=O)CN(C)C(=O)[C@H](Cc2c[nH]c3ccccc23)NC(=O)[C@H](CC(=O)O)NC(=O)[C@H](CCC(N)=O)NC(=O)[C@H](Cc2cn(C)c3ccccc23)NC1=O [Compound 15, Ac-{d}YI[C(1)]I[1-Me-Trp]QDW[Sar]EHR[C(1)]TEGE[Peg3]ES-K([17-Carboxy-heptadecanoyl][yGlu])-NH2] (Ac-[dY]ICI[Trp(1-Me)]QDW[Sar]EHRCTEGE[AEEA]ESK([γGlu-C18 diacid])-NH2; linker 3-13 via CH2)",< 250
10,Ac-YEQAF[C(1)]I[1-Me-Trp]QDW[Sar]EHR[C(1)]TEGE[Peg3]ES-K([17-Carboxy-heptadecanoyl][yGlu]G[yGlu])-NH2 [Compound 30],< 100
11,"CC[C@H](C)[C@@H]1NC(=O)[C@@H](NC(=O)[C@H](Cc2ccccc2)NC(=O)[C@H](C)NC(=O)[C@H](CCC(N)=O)NC(=O)[C@H](CCC(=O)O)NC(=O)[C@H](CO)NC(C)=O)CSCSC[C@@H](C(=O)N[C@H](C(=O)N[C@@H](CCC(=O)O)C(=O)NCC(=O)N[C@@H](CCC(=O)O)C(=O)NCCOCCOCC(=O)NCCOCCOCC(=O)N[C@@H](CCCCNC(=O)CC[C@H](NC(=O)CNC(=O)CC[C@H](NC(=O)CCCCCCCCCCCCCCCCC(=O)O)C(=O)O)C(=O)O)C(N)=O)[C@@H](C)O)NC(=O)[C@H](CCCNC(=N)N)NC(=O)[C@H](Cc2c[nH]cn2)NC(=O)[C@H](CCC(=O)O)NC(=O)CN(C)C(=O)[C@H](Cc2c[nH]c3ccccc23)NC(=O)[C@H](CC(=O)O)NC(=O)[C@H](CCC(N)=O)NC(=O)[C@H](Cc2cn(C)c3ccccc23)NC1=O [Compound 25, Ac-SEQAF[C(1)]I[1-Me-Trp]QDW[Sar]EHR[C(1)]TEGE[Peg3][Peg3]-K([17-Carboxy-heptadecanoyl][yGlu]G[yGlu])-NH2] (Ac-SEQAFCI[Trp(1-Me)]QDW[Sar]EHRCTEGE[AEEA][AEEA]K([γGlu-Gly-γGlu-C18 diacid])-NH2; linker 6-16 via CH2)",< 100
12,Ac-SEF[C(1)]I[1-Me-Trp]QDW[SarJAHR[C(1)]TEGE[Peg3]ES-K([17-Carboxy-heptadecanoyl][yGlu])-NH2 [Compound 13],< 250
13,Ac-SEF[C(1)]I[1-Me-Trp]QDWGEHR[C(1)][Sar]EGA-K([17-Carboxy-heptadecanoyl]-[yGlu]G[Peg3][yGlu][Peg3]-NH2 [Compound 4],< 500
14,Ac-SEF[C(1)]I[1-Me-Trp]QDW[Sar]EHR[C(1)][Sar]E[Peg3][Peg3]-K([17-Carboxy-heptadecanoyl]-[yGlu]G[yGlu]-NH2 [Compound 8],< 500
15,"CC[C@H](C)[C@@H]1NC(=O)[C@@H](NC(=O)[C@H](Cc2ccccc2)NC(=O)[C@@H](NC(=O)[C@H](CCC(N)=O)NC(=O)[C@H](CCC(=O)O)NC(=O)[C@H](CO)NC(=O)[C@H](CCC(=O)O)NC(C)=O)C(C)C)CSCSC[C@@H](C(=O)N[C@H](C(=O)N[C@@H](CCC(=O)O)C(=O)NCC(=O)N[C@@H](CCC(=O)O)C(=O)NCCOCCOCC(=O)NCCOCCOCC(=O)N[C@@H](CCCCNC(=O)CC[C@H](NC(=O)CNC(=O)CC[C@H](NC(=O)CCCCCCCCCCCCCCCCC(=O)O)C(=O)O)C(=O)O)C(N)=O)[C@@H](C)O)NC(=O)[C@H](CCCNC(=N)N)NC(=O)[C@H](Cc2c[nH]cn2)NC(=O)[C@H](CCC(=O)O)NC(=O)CN(C)C(=O)[C@H](Cc2c[nH]c3ccccc23)NC(=O)[C@H](CC(=O)O)NC(=O)[C@H](CCC(N)=O)NC(=O)[C@H](Cc2cn(C)c3ccccc23)NC1=O [Compound 24, Ac-ESEQVF[C(1)]I[1-Me-Trp]QDW[Sar]EHR[C(1)]TEGE[Peg3][Peg3]-K([17-Carboxy-heptadecanoyl][yGlu]G[yGlu])-NH2] (Ac-ESEQVFCI[Trp(1-Me)]QDW[Sar]EHRCTEGE[AEEA][AEEA]K([γGlu-Gly-γGlu-C18 diacid])-NH2; linker 7-17 via CH2)",< 100
16,Ac-SEF[C(1)]I[1-Me-Trp]QDWGEHR[C(1)]TEGE[Peg3]ES-K([17-Carboxy-heptadecanoyl]-[yGlu]-NH2 [Compound 5],< 500
17,"CC[C@H](C)[C@@H]1NC(=O)[C@@H](NC(=O)[C@H](Cc2ccccc2)NC(=O)[C@@H](NC(=O)[C@H](CCC(N)=O)NC(=O)[C@H](CO)NC(=O)[C@H](CCC(=O)O)NC(C)=O)C(C)C)CSCSC[C@@H](C(=O)N[C@H](C(=O)N[C@@H](CCC(=O)O)C(=O)NCC(=O)N[C@@H](CCC(=O)O)C(=O)NCCOCCOCC(=O)NCCOCCOCC(=O)N[C@@H](CCCCNC(=O)CC[C@H](NC(=O)CNC(=O)CC[C@H](NC(=O)CCCCCCCCCCCCCCCCC(=O)O)C(=O)O)C(=O)O)C(N)=O)[C@@H](C)O)NC(=O)[C@H](CCCNC(=N)N)NC(=O)[C@H](Cc2c[nH]cn2)NC(=O)[C@H](CCC(=O)O)NC(=O)CN(C)C(=O)[C@H](Cc2c[nH]c3ccccc23)NC(=O)[C@H](CC(=O)O)NC(=O)[C@H](CCC(N)=O)NC(=O)[C@H](Cc2cn(C)c3ccccc23)NC1=O [Compound 23, Ac-ESQVF[C(1)]I[1-Me-Trp]QDW[Sar]EHR[C(1)]TEGE[Peg3][Peg3]-K([17-Carboxy-heptadecanoyI][yGlu]G[yGlu])-NH2] (Ac-ESQVFCI[Trp(1-Me)]QDW[Sar]EHRCTEGE[AEEA][AEEA]K([γGlu-Gly-γGlu-C18 diacid])-NH2; linker 6-16 via CH2)",< 100
18,Ac-GEF[C(1)]I[1-Me-Trp]QDWGEHR[C(1)][Sar]EAE[Peg3][Peg3]-K([17-Carboxy-heptadecanoyl][yGlu]G[yGlu])-NH2 [Compound 6],< 500
